Test results from ChEMBL document CHEMBL4507267 (2021).

Experiments:
[1] = target: Protein-tyrosine kinase 6 (Homo sapiens) (UniProt Q13882); settings: Compound concentration 1000.0 nM
[2] = system: Tyrosine-protein kinase ABL1 (Homo sapiens), P00519 [T315I]; settings: Compound concentration 1000.0 nM
[3] = target: Death-associated protein kinase 3 (Homo sapiens) (UniProt O43293); settings: Compound concentration 1000.0 nM
[4] = target: Serine/threonine-protein kinase ULK3 (Homo sapiens) (UniProt Q6PHR2); settings: Compound concentration 1000.0 nM
Histamine H2 receptor = Histamine H2 receptor (Homo sapiens, UniProt P25021); settings: Compound concentration 10.0 uM
Histamine H2 receptor, sequence (P25021 whole entry): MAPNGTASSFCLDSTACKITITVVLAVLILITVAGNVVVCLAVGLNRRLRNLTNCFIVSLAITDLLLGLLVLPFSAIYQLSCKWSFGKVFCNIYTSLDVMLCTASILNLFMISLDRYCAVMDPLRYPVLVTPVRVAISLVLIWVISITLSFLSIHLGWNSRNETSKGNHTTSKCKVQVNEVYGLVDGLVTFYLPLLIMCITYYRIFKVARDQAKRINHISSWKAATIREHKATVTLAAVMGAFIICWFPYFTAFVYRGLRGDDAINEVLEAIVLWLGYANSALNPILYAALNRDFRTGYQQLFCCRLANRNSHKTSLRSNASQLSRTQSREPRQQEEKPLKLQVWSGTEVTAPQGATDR

[5] = target: 5-hydroxytryptamine receptor 1A (Homo sapiens) (UniProt P08908); settings: Compound concentration 10.0 uM
[6] = target: Tyrosine-protein kinase BTK (Homo sapiens) (UniProt Q06187); settings: Compound concentration 1000.0 nM
[7] = target: Serine/threonine-protein kinase 32A (Homo sapiens) (UniProt Q8WU08); settings: Compound concentration 1000.0 nM
[8] = target: Cyclin-dependent kinase 19 (Homo sapiens) (UniProt Q9BWU1); settings: Compound concentration 1000.0 nM
[9] = target: Receptor-interacting serine/threonine-protein kinase 2 (Homo sapiens) (UniProt O43353); settings: Compound concentration 1000.0 nM
[10] = target: Cyclin-dependent kinase 4 (Homo sapiens) (UniProt P11802); settings: Compound concentration 1000.0 nM
Cyclin-dependent kinase 4 (Homo sapiens), sequence (P11802 whole entry): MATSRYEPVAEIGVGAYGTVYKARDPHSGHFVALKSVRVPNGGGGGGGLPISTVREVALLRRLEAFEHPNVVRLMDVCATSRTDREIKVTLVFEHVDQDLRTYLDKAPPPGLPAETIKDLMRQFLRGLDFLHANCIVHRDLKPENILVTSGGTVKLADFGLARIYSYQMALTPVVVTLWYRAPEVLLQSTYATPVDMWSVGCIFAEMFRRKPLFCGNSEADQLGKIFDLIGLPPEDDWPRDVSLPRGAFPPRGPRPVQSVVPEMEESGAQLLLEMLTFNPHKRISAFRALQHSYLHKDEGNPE

[11] = target: Ribosomal protein S6 kinase alpha-1 (Homo sapiens) (UniProt Q15418); settings: Compound concentration 1000.0 nM
[12] = target: Serine/threonine-protein kinase LATS1 (Homo sapiens) (UniProt O95835); settings: Compound concentration 1000.0 nM
[13] = target: Mitotic checkpoint serine/threonine-protein kinase BUB1 (Homo sapiens) (UniProt O43683); settings: Compound concentration 1000.0 nM
Mitotic checkpoint serine/threonine-protein kinase BUB1 (Homo sapiens), sequence (O43683 whole entry, looked up): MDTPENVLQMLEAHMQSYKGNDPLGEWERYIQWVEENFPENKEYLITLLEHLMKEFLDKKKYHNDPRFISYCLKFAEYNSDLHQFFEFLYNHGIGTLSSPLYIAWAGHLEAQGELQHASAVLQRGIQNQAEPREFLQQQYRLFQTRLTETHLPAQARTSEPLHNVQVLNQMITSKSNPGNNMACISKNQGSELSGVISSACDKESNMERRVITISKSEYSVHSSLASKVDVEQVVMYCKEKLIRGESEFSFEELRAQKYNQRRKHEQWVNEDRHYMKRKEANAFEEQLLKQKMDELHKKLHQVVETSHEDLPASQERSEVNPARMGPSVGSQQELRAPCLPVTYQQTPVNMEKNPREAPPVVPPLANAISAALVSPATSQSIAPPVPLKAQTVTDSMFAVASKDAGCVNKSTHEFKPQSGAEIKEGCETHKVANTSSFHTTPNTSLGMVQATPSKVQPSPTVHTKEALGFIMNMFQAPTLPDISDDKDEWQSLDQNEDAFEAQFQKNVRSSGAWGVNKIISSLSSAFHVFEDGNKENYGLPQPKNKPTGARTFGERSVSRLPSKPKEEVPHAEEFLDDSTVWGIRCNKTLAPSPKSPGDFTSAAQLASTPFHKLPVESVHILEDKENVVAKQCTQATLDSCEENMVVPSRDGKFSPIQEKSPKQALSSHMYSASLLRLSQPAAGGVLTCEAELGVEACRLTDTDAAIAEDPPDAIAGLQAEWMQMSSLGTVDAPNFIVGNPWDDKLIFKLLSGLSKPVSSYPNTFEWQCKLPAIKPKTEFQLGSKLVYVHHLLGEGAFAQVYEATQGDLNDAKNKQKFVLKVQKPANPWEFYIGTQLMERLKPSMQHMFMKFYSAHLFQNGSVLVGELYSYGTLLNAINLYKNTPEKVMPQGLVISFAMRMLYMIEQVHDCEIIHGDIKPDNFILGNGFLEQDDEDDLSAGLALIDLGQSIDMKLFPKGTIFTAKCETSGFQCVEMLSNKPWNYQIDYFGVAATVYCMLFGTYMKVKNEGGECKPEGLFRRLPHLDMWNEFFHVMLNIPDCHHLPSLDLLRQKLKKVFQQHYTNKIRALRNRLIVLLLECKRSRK

[14] = target: Serine/threonine-protein kinase ICK (Homo sapiens) (UniProt Q9UPZ9); settings: Compound concentration 1000.0 nM
[15] = target: Rhodopsin kinase GRK7 (Homo sapiens) (UniProt Q8WTQ7); settings: Compound concentration 1000.0 nM
[16] = target: Cyclin-dependent kinase-like 5 (Homo sapiens) (UniProt O76039); settings: Compound concentration 1000.0 nM
[17] = target: Wee1-like protein kinase (Homo sapiens) (UniProt P30291); settings: Compound concentration 1000.0 nM
[18] = target: MAP kinase-activated protein kinase 5 (Homo sapiens) (UniProt Q8IW41); settings: Compound concentration 1000.0 nM
[19] = target: Ankyrin repeat and protein kinase domain-containing protein 1 (Homo sapiens) (UniProt Q8NFD2); settings: Compound concentration 1000.0 nM
Ankyrin repeat and protein kinase domain-containing protein 1 (Homo sapiens), sequence (Q8NFD2 whole entry, the tested form may be a part): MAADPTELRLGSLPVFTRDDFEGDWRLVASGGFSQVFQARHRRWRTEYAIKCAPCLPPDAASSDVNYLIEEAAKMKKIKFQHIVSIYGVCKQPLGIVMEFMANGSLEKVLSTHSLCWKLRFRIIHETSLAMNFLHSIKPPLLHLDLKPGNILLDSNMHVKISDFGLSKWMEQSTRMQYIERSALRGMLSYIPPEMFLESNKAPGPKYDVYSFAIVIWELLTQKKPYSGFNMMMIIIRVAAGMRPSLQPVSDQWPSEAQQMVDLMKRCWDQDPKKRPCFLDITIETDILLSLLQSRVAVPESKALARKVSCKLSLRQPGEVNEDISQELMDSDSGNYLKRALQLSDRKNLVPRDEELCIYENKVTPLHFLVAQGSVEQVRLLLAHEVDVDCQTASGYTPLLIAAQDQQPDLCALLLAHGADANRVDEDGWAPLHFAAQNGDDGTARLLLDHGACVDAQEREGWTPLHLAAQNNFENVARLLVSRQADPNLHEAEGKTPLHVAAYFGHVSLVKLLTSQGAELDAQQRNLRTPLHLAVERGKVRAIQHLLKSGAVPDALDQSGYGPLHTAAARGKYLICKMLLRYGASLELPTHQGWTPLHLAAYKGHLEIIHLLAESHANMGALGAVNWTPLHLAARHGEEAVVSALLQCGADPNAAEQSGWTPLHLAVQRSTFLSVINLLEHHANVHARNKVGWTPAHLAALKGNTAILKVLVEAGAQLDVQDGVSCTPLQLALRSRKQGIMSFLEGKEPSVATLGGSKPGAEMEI

[20] = target: Serine/threonine-protein kinase SIK2 (Homo sapiens) (UniProt Q9H0K1); settings: Compound concentration 1000.0 nM
Serine/threonine-protein kinase SIK2 (Homo sapiens), sequence (Q9H0K1 whole entry, looked up, canonical isoform): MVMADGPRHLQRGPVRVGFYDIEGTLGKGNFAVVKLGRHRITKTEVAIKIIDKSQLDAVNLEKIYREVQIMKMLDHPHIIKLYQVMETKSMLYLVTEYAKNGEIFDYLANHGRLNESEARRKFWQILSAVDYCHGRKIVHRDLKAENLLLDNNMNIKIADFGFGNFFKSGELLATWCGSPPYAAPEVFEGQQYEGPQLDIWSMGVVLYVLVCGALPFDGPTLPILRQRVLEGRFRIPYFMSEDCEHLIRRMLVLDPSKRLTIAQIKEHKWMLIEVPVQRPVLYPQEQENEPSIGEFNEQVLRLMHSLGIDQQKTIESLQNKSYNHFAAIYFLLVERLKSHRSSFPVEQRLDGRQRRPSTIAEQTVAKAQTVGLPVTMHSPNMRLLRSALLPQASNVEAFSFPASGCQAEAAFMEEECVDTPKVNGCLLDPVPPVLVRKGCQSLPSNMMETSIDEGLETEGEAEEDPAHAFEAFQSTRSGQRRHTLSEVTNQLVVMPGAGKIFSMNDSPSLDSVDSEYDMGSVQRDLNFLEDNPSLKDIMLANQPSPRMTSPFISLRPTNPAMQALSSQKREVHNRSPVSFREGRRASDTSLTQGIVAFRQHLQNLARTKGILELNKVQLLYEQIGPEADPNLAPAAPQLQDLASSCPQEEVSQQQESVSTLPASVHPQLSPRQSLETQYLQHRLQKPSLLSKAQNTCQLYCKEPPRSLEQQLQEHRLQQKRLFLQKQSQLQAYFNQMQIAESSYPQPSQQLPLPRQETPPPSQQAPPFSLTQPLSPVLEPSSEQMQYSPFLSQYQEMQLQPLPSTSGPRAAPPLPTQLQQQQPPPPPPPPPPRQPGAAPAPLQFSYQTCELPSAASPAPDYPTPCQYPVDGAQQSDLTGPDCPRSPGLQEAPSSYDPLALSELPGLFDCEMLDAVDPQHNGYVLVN

[21] = target: Casein kinase I isoform epsilon (Homo sapiens) (UniProt P49674); settings: Compound concentration 1000.0 nM
[22] = target: Aurora kinase C (Homo sapiens) (UniProt Q9UQB9); settings: Compound concentration 1000.0 nM
[23] = target: 5-hydroxytryptamine receptor 2C (Homo sapiens) (UniProt P28335); settings: Compound concentration 10.0 uM
[24] = target: Mitogen-activated protein kinase kinase kinase 5 (Homo sapiens) (UniProt Q99683); settings: Compound concentration 1000.0 nM
[25] = target: Insulin-like growth factor 1 receptor (Homo sapiens) (UniProt P08069); settings: Compound concentration 1000.0 nM
[26] = target: 5-hydroxytryptamine receptor 5A (Homo sapiens) (UniProt P47898); settings: Compound concentration 10.0 uM
[27] = target: Protein kinase C theta type (Homo sapiens) (UniProt Q04759); settings: Compound concentration 1000.0 nM
[28] = target: Casein kinase I isoform gamma-1 (Homo sapiens) (UniProt Q9HCP0); settings: Compound concentration 1000.0 nM
[29] = target: Cyclin-dependent kinase 16 (Homo sapiens) (UniProt Q00536); settings: Compound concentration 1000.0 nM
[30] = target: RAC-beta serine/threonine-protein kinase (Homo sapiens) (UniProt P31751); settings: Compound concentration 1000.0 nM
[31] = target: Tyrosine-protein kinase JAK1 (Homo sapiens) (UniProt P23458); settings: Compound concentration 1000.0 nM
[32] = target: Alpha-1D adrenergic receptor (Homo sapiens) (UniProt P25100); settings: Compound concentration 10.0 uM
Alpha-1D adrenergic receptor (Homo sapiens), sequence (P25100 whole entry): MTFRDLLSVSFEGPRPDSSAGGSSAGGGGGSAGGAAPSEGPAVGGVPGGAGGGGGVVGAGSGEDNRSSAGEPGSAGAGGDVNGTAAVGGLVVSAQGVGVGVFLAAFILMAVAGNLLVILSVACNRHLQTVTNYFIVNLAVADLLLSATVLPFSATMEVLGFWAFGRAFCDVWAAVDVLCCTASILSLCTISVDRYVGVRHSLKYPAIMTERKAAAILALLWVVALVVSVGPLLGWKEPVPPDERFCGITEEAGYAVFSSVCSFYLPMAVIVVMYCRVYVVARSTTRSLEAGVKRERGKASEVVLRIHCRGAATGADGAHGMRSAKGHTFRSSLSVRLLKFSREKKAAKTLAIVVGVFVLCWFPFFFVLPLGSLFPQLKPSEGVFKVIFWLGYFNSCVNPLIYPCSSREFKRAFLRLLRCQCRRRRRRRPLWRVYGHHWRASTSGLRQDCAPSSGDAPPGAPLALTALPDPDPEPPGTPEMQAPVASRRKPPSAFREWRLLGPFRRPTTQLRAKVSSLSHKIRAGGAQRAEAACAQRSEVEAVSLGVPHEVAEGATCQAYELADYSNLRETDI

[33] = system: Epidermal growth factor receptor (Homo sapiens), P00533 [T790M]; settings: Compound concentration 1000.0 nM
[34] = target: Cyclin-dependent kinase 3 (Homo sapiens) (UniProt Q00526); settings: Compound concentration 1000.0 nM
[35] = target: Serine/threonine-protein kinase 38-like (Homo sapiens) (UniProt Q9Y2H1); settings: Compound concentration 1000.0 nM
[36] = target: Fibroblast growth factor receptor 1 (Homo sapiens) (UniProt P11362); settings: Compound concentration 1000.0 nM
Fibroblast growth factor receptor 1 (Homo sapiens), sequence (P11362 22-822 limits assumed): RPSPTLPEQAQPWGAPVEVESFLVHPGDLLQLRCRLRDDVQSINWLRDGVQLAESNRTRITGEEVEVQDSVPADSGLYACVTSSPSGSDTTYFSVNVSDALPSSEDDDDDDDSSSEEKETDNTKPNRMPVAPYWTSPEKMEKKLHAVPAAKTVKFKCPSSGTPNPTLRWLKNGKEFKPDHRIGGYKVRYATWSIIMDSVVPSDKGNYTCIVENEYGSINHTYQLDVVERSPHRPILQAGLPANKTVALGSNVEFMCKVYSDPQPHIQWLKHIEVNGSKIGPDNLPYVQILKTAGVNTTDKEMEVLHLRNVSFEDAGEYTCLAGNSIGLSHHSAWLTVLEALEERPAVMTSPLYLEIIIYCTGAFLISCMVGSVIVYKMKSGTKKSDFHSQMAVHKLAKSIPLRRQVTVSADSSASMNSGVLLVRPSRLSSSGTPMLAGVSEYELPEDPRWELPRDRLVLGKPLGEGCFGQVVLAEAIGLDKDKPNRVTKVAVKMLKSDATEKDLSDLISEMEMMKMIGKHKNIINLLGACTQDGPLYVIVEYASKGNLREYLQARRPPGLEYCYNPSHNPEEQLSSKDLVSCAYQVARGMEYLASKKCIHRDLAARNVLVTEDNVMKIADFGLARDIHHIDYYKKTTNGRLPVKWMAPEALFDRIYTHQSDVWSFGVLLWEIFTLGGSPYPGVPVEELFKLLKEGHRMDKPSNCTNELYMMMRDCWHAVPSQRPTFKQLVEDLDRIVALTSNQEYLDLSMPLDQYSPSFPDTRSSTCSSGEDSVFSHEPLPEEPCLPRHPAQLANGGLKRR

[37] = target: Cyclin-dependent kinase 2 (Homo sapiens) (UniProt P24941); settings: Compound concentration 1000.0 nM
[38] = system: Phosphatidylinositol 4,5-bisphosphate 3-kinase catalytic subunit alpha isoform (Homo sapiens), P42336 [H1047Y]; settings: Compound concentration 1000.0 nM
[39] = target: Serine/threonine-protein kinase 25 (Homo sapiens) (UniProt O00506); settings: Compound concentration 1000.0 nM
[40] = system: Phosphatidylinositol 4,5-bisphosphate 3-kinase catalytic subunit alpha isoform (Homo sapiens), P42336 [H1047L]; settings: Compound concentration 1000.0 nM
[41] = target: Glycogen synthase kinase-3 beta (Homo sapiens) (UniProt P49841); settings: Compound concentration 1000.0 nM
[42] = target: 5-hydroxytryptamine receptor 2A (Homo sapiens) (UniProt P28223); settings: Compound concentration 10.0 uM
[43] = target: Phosphorylase b kinase regulatory subunit alpha, liver isoform (Homo sapiens) (UniProt P46019); settings: Compound concentration 1000.0 nM
[44] = system: Mast/stem cell growth factor receptor Kit (Homo sapiens), P10721 [V559D,T670I]; settings: Compound concentration 1000.0 nM
[45] = target: Glycogen synthase kinase-3 alpha (Homo sapiens) (UniProt P49840); settings: Compound concentration 1000.0 nM

Cc1c(NC(=O)c2cc(C(N)=O)nc3cc(F)ccc23)c(C(F)(F)F)nn1Cc1ccc(C(C)(C)C)cc1 [BAY-588]
inactive: residual activity [1] 100% | residual activity [2] 85% | residual activity [3] 76% | residual activity [4] 97% | inhibition (Histamine H2 receptor) 32.4% | inhibition [5] 18.6% | residual activity [6] 100% | residual activity [7] 100% | residual activity [8] 100% | residual activity [9] 93% | residual activity [10] 100% | residual activity [11] 100% | residual activity [12] 100% | residual activity [13] 100% | residual activity [14] 61% | residual activity [15] 100% | residual activity [16] 100% | residual activity [17] 100% | residual activity [18] 87% | residual activity [19] 100% | residual activity [20] 100% | residual activity [21] 91% | residual activity [22] 100% | inhibition [23] -2.42% | residual activity [24] 100% | residual activity [25] 100% | inhibition [26] 8.32% | residual activity [27] 91% | residual activity [28] 100% | residual activity [29] 100% | residual activity [30] 98% | residual activity [31] 100% | inhibition [32] 2.92% | residual activity [33] 100% | residual activity [34] 100% | residual activity [35] 89% | residual activity [36] 93% | residual activity [37] 88% | residual activity [38] 89% | residual activity [39] 100% | residual activity [40] 100% | residual activity [41] 100% | inhibition [42] -0.878% | residual activity [43] 83% | residual activity [44] 100% | residual activity [45] 98%

Cc1c(NC(=O)c2cc(C(N)=O)nc3cc(F)ccc23)c(C(F)(F)F)nn1Cc1ccc(C#N)cc1 [BAY-876]
inactive: residual activity [1] 100% | residual activity [2] 92% | residual activity [3] 89% | residual activity [4] 74% | inhibition (Histamine H2 receptor) 30.4% | inhibition [5] -3.47% | residual activity [6] 70% | residual activity [7] 89% | residual activity [8] 82% | residual activity [9] 100% | residual activity [10] 81% | residual activity [11] 100% | residual activity [12] 94% | residual activity [13] 88% | residual activity [14] 100% | residual activity [15] 75% | residual activity [16] 77% | residual activity [17] 94% | residual activity [18] 84% | residual activity [19] 80% | residual activity [20] 100% | residual activity [21] 100% | residual activity [22] 90% | inhibition [23] 6.9% | residual activity [24] 91% | residual activity [25] 100% | inhibition [26] -2.35% | residual activity [27] 80% | residual activity [28] 100% | residual activity [29] 100% | residual activity [30] 98% | residual activity [31] 100% | inhibition [32] 7.36% | residual activity [33] 100% | residual activity [34] 95% | residual activity [35] 100% | residual activity [36] 100% | residual activity [37] 91% | residual activity [38] 86% | residual activity [39] 100% | residual activity [40] 88% | residual activity [41] 88% | inhibition [42] 14.3% | residual activity [43] 94% | residual activity [44] 89% | residual activity [45] 100%
